Each block holds one compound with its values, some of them ahead of it.
Experiments:
[1] = test system: Friend leukemia virus; assay: Inhibitory effect on the induction of splenomegaly by Friend leukemia virus in mice; type: in vivo, mouse (male C3H/HeN); details: for inhibition of splenomegaly in mice (in words): Friend leukemia virus; for Spleen weight / Inhibition: day 14; for Inhibition: percent inhibition of infection from spleen weight
Protocol: Male C3H/HeN mice (5 weeks old) were intraperitoneally inoculated with 3.1 × 10^1 MID50 /mouse of Friend leukemia virus (in 0.2 ml) and then, after this infection procedure, the active ingredient [compound (I) or compound (II)] of the present invention was administered at a specified dose in the form of a solution in sterile physiological saline by the route specified below (Experiment 1 or 2). On day 14 after infection, the mice were sacrificed by exsanguination and the spleen weight (in mg) was measured for evaluating the inhibitory effect of the compound (I) and (II) on the induction of splenomegaly. In each experiment, the control group consisted of mice given no active ingredient after infection with Friend leukemia virus. The percent inhibition of infection was calculated as follows: [formula] The compound (I) was intravenously administered 4 hours after infection (day 0) and then twice daily on days 1 to 4 and days 7 to 11 (19 times in total). The compound (II) was orally administered 1 hour after infection and then according to the same schedule as in Experiment 1. The compound (II) used was in the α form, namely the compound (II'). Friend leukemia virus used in the above test is known to be a lymphotropic retrovirous, like HIV. Since the extent of splenomegaly in mice induced by said virus is proportional to the proliferation of said virus, the inhibitory effect of an agent on the proliferation of Friend leukemia virus can be estimated by assaying its inhibitory effect on the splenomegaly in mice.

[2] = Stability and hygroscopicity; type: physicochemical; details: compared with the pyrroline compound (I)
[3] = test system: inflammation; assay: Anti-inflammatory activity (general statement); details: stated in words
[4] = test system: Friend leukemia virus; assay: Inhibitory effect on the induction of splenomegaly by Friend leukemia virus in mice; type: in vivo, mouse (male C3H/HeN); details: combination with azidothymidine (AZT); no data given
[5] = test system: cytopathic effect of HIV: LAV-1-infected CEM cells / Molt4 (clone 8) cells; assay: Inhibitory effect on the cytopathic effect of HIV (syncytium/giant cell formation); type: cell-based, human immunodeficiency virus (LAV-1)
Protocol: The inhibitory effect of the compound (I) on the cytopathic effect (syncytium formation) by HIV infection on T lymphocytes was evaluated in the following manner.
(1) CEM cells infected with LAV-1 were washed twice with RPMI 1640 medium and a cell suspension (1 × 10^6 cells/ml) was prepared using the same medium. The suspension was distributed in 100-μl portions into culture tubes (16 × 125 mm). Complete medium^*1 containing the compound (I) in several specified concentrations was added to the culture tubes and incubation was performed in the presence of 5% carbon dioxide a 37° C. for 3 days.
The LAV-1-infected CEM cells thus cultured were washed twice with RPMI 1640 medium and then adjusted to 4 × 10^5 cells/ml with the complete medium.
[*1: RPMI 1640 medium supplemented with 20% fetal calf serum, 2.5 mM glutamine, kanamycin (100 μg/ml) and penicillin G (100 units/ml)]
(2) Molt4 (clone 8) cells were washed twice with RPMI 1640 medium and then adjusted to 2 × 10^6 cells/ml with the complete medium.
(3) The LAV-1-infected CEM cell suspension in complete medium prepared in (1) and the Molt4 (clone 8) cell suspension in complete medium prepared in (2) were respectively distributed in 50-μl portions into 96 well flat bottomed tissue culture plate, followed by further addition of 50 μl of each solution of the compound (I) in complete medium to each well, which was, in advance, prepared to give a final concentration of compound (I) of 100 μg/ml, 50 μg/ml, 20 μg/ml or 10 μg/ml (the final volume in each well being 150 μl).
(4) The above tissue culture plate was incubated at 37° C. in the presence of 5% carbon dioxide for 16 hours and then the giant cells resulting from cytopathic alteration of Molt4 (clone 8) cells were counted within the visual field of a microscope (magnification × 400).
The compound (II) was also evaluated for the same inhibitory effect (the α isomer, i.e. the compound (II'), was selected as a representative of the compound (II)).

[6] = Acute toxicity testing in mice; type: in vivo, mouse (ddY, female)
Protocol: The compound (I) was administered to mice (ddY strain, female, 5 weeks old) at a dose of 1 g per kg body weight by intravenous injection.

[7] = test system: α-glucosidase; details: stated without data; cited from earlier work
[8] = test system: immunosuppressive factors; details: stated without data; cited from earlier work
[9] = test system: Type II collagen-induced arthritis; assay: Type II collagen-induced arthritis in rats; type: in vivo, rat (female Lewis); details: oral, means ± SEM
Protocol: (2R, 3S, 4R, 5R)-3,4-dihydroxy-5-hydroxymethyl-2-pyrrolidinesufonic acid (compound (II'))
Inbred 7-week-old female Lewis rats were handled under specific pathogen-free conditions and acclimated to the new environment for a week before use.
Type II bovine collagen was dissolved at 4° C. in 0.01M acetic acid at a concentration of 2 mg/ml. The solution was emulsified in an equal volume of incomplete Freund's adjuvant. Rats were anesthetized with sodium pentobarbital (30 mg/kg, i.p.) and the backs of rats were shaved. Under anesthesia, each rat was immunized with 0.8 ml of the cold emulsion by several intradermal injections on the depilated back and one or two injections into the base of the tail.
The test compound was dissolved in distilled water and administered orally at various doses in 5 ml/kg. From the day of immunization, the test compound or vehicle was administered once a day for 2 weeks.
The extent of arthritis was expressed as the increase in paw volume of each rat. The volume of both hind legs below the knee joint was measured with a plethysmometer. The rats were immunized on day 0 and the paw volume was measured on day 12 and 14. Mean increases in the paw volume of each group was calculated and the result was expressed as means ± SEM. Each group consisted of 10 rats.

stability [2]: very stable
SMILES: O=S(=O)(O)C1N[C@H](CO)[C@@H](O)[C@@H]1O (some centres unmarked) [(II)]
inhibition of splenomegaly in mice (in words) [1]: can inhibit such splenomegally in mice
hygroscopicity [2]: less hygroscopic than the pyrroline compound (I)
anti-inflammatory activity [3]: has anti-inflammatory activity
potentiation of azidothymidine (AZT) in inhibiting splenomegaly in mice [4]: can potentiate azidothymidine (AZT) in inhibiting such splenomegaly in mice

SMILES: OC[C@H]1N=C[C@@H](O)[C@@H]1O [Compound (I), (3R, 4R, 5R)-3,4-dihydroxy-5-hydroxymethyl-1-pyrroline]
Number of giant cells ([5]; compound (I) 10 μg/ml, 16 h, control (0 μg/ml) 260.5, mean of two countings): 246.5
Number of giant cells ([5]; compound (I) 20 μg/ml, 16 h, control (0 μg/ml) 260.5, mean of two countings): 147.5
Number of giant cells ([5]; compound (I) 50 μg/ml, 16 h, control (0 μg/ml) 260.5, mean of two countings): 44.5
Number of giant cells ([5]; compound (I) 100 μg/ml, 16 h, control (0 μg/ml) 260.5, mean of two countings): 9.5
inhibition of splenomegaly in mice (in words) [1]: can inhibit such splenomegally in mice
Spleen weight ([1]; intravenous, 20 mg/kg/administration, 19 times, control 1149 ± 220, normal 92 ± 3 mg, mean of 10 mice): 840 ± 421 mg
Inhibition ([1]; intravenous, 20 mg/kg/administration, 19 times): 29%
Spleen weight ([1]; intravenous, 80 mg/kg/administration, 19 times, control 1149 ± 220, normal 92 ± 3 mg, mean of 10 mice): 667 ± 241 mg
Inhibition ([1]; intravenous, 80 mg/kg/administration, 19 times): 46%
body weight ([6]; 1 g per kg body weight, intravenous injection): body weight gains
survival ([6]; mouse, in vivo, iv): The mice survived
potentiation of azidothymidine (AZT) in inhibiting splenomegaly in mice [4]: can potentiate azidothymidine (AZT) in inhibiting such splenomegaly in mice
α-glucosidase inhibiting activity [7]: α-glucosidase inhibiting activity
activity against immunosuppressive factors [8]: activity against immunosuppressive factors

SMILES: O=S(=O)(O)[C@H]1N[C@H](CO)[C@@H](O)[C@@H]1O [Compound (II'), (2R, 3S, 4R, 5R)-3,4-dihydroxy-5-hydroxymethyl-2-pyrrolidinesulfonic acid]
Number of giant cells ([5]; compound (II') 1 μg/ml, control (0 μg/ml) 173.0 ± 2.0, mean ± SD): 119.5 ± 16.5
Number of giant cells ([5]; compound (II') 3 μg/ml, control (0 μg/ml) 173.0 ± 2.0, mean ± SD): 106.0 ± 19
Number of giant cells ([5]; compound (II') 10 μg/ml, control (0 μg/ml) 173.0 ± 2.0, mean ± SD): 89.0 ± 10
Number of giant cells ([5]; compound (II') 30 μg/ml, control (0 μg/ml) 173.0 ± 2.0, mean ± SD): 53.5 ± 8.5
Number of giant cells ([5]; compound (II') 100 μg/ml, control (0 μg/ml) 173.0 ± 2.0, mean ± SD): 26.5 ± 3.5
Spleen weight ([1]; oral, 10 mg/kg/administration, first 1 hour after infection, control 1073 ± 26, normal 79 ± 2 mg, mean of 8 mice): 875 ± 71 mg
Inhibition ([1]; oral, 10 mg/kg/administration, first 1 hour after infection): 20%
Paw volume change ([9]; 10 mg/kg once a day, 12 day, control 0.29 ± 0.13, normal 0.03 ± 0.07): 0.16 ± 0.15 mL
Paw volume change ([9]; 10 mg/kg once a day, 14 day, control 0.41 ± 0.24, normal 0.05 ± 0.03): 0.27 ± 0.21 mL
Paw volume change ([9]; 32 mg/kg once a day, 12 day, control 0.29 ± 0.13, normal 0.03 ± 0.07): 0.13 ± 0.10 mL
Paw volume change ([9]; 32 mg/kg once a day, 14 day, control 0.41 ± 0.24, normal 0.05 ± 0.03): 0.19 ± 0.22 mL
Paw volume change ([9]; 100 mg/kg once a day, 12 day, control 0.29 ± 0.13, normal 0.03 ± 0.07): 0.08 ± 0.11 mL
Paw volume change ([9]; 100 mg/kg once a day, 14 day, control 0.41 ± 0.24, normal 0.05 ± 0.03): 0.06 ± 0.04 mL

Reference: patent US5098927A, “Antiretroviral agent, method of use thereas, and method of preparation” (Fujisawa Pharmaceutical Co., Ltd., priority 1989, dated 1992)
